Experimental data as given in patent US20210238177A1, “CRYSTALLINE FORMS OF 3-((1R,5S,9r)-9-ETHOXY-3-AZABICYCLO[3.3.1]NONAN-9-YL)-BENZAMIDE AND SALT FORMS THEREOF” (Alkermes, Inc., priority 2020, published 2021).

Assay: Dynamic Vapor Sorption (DVS) with PXRD of the material after DVS
Type: physicochemical
Method: DVS analysis was conducted using a TA Instruments TGA Q5000 SA. DVS was run at 25 degrees C. The sample was pre-dried at 25 degrees C. and 0% relative humidity (% RH) until the dm/dt was 0.01% for up to 300 minutes. Adsorption and desorption isotherms were measured by ramping the humidity from 0% RH to 90% RH to 0% RH at 10% RH step intervals with a stability criterion of dm/dt=0.01% or 300 minutes unless otherwise noted. Data analysis was performed using Universal Analysis 2000 Version 4.5 A.

Row | SMILES | relative stability of HCl salt solid forms (conclusion based on the DVS experiment) | water (DVS weight gain) (25 degrees C, first cycle, up to 50% RH) | solid form after DVS (PXRD pattern) (after two cycle DVS, 0% RH to 90% RH to 0% RH, 25 degrees C)
1 | CCOC1(c2cccc(C(N)=O)c2)C2CCCC1CNC2.Cl [hydrochloride Form B, 3-((1R,5S,9r-9-ethoxy-3-azabicyclo-[3.3.1]nonan-9-yl)-benzamide hydrochloride] | most stable HCl salt solid form | – | –
2 | CCOC1(c2cccc(C(N)=O)c2)C2CCCC1CNC2.Cl [hydrochloride Form D, 3-((1R,5S,9r-9-ethoxy-3-azabicyclo-[3.3.1]nonan-9-yl)-benzamide hydrochloride] | – | approximately 0.5% | consistent with hydrochloride Form B
